In this assay the target is T1, human TRPM5 ion channel (Homo sapiens, UniProt Q9NZQ8).
T1 sequence (Q9NZQ8 1-1165): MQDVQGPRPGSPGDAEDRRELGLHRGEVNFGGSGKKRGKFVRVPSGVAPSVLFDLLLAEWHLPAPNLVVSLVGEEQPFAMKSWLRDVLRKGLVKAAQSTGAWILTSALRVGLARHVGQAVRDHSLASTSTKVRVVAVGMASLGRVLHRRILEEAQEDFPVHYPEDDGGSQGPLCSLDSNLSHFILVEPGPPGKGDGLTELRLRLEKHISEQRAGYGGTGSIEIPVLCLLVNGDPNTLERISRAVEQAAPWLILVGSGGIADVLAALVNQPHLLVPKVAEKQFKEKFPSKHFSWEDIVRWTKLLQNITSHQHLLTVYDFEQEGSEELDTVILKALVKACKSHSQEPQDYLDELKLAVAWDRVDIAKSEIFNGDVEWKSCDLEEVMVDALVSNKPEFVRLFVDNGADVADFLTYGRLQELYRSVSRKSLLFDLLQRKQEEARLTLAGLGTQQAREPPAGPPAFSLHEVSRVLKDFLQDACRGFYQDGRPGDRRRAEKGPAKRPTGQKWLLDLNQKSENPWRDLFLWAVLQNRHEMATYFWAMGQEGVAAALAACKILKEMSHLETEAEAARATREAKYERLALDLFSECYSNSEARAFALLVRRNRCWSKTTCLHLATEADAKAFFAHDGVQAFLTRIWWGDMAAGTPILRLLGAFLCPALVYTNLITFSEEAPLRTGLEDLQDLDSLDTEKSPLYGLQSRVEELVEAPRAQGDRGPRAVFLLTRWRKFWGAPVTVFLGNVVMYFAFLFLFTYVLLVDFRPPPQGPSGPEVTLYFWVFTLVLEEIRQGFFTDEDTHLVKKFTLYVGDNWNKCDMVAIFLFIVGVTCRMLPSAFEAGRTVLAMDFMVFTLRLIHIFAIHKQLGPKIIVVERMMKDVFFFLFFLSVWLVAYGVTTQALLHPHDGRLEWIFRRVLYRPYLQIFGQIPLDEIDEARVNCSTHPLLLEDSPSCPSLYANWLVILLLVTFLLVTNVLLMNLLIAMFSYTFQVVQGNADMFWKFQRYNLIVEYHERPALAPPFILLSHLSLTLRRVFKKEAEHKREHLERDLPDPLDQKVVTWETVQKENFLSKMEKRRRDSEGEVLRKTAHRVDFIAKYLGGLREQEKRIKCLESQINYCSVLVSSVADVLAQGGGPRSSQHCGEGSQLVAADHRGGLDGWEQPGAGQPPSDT
As to the kind of experiment: FLIPR-based assay for membrane potential and calcium mobilization (TRPM5 inhibiting activity). The class given is cell-based. The conditions noted are these: live cells, 30° C., read-out: hTrpM5 IC50. The protocol:
The activity of compounds of the present invention on human TRPM5 ion channel was measured using the FLIPR-based (fluorescent imaging plate reader) assay for membrane potential and calcium mobilization described in U.S. Patent Application Publication No. 2008/0249189 A1 in live cells, wherein the assay is performed at 30° C. Determinations of affinity and efficacy were derived from measurements of TRPM5 activity over a range of compound concentrations. The concentration range was achieved by 10 serial dilutions (either 2-fold or 3-fold decrements) from a maximum concentration of no greater that 100 μM. Curver fitting was performed on the resulting data to yield concentration-effect functions, from which the half-maximal inhibitory concentration (IC50) was derived for all the tested compounds. The IC50 values were considered to be accurate reflections of affinity between the compounds and TRPM5.
Representative compounds of the present invention have been tested in the FLIPR assay for TRPM5 inhibiting activity, which is described in detail above.
Background: A change in cytosolic calcium serves as a functional read-out for many receptors and channels.
By IC50 is commonly meant the concentration at which inhibition is half-maximal. Turning to `COc1ccc(/C=N/NC(=O)CCn2cc(CN(C)C)c3c(Cl)cccc32)cc1OC` [Example 47, 3-(4-Chloro-3-((dimethylamino)methyl)-1H-indol-1-yl)-N′-(3,4-dimethoxybenzylidene)propanehydrazide], the IC50 is 1500 nM. Consider `COc1ccc(/C=N/NC(=O)CCn2ccc3ccccc32)cc1OC` [Example 54, N′-(3,4-dimethoxybenzylidene)-3-(1H-indol-1-yl)propanehydrazide], for which the IC50 was found to be 170 nM. As for `COc1ccc(/C=N/NC(=O)C(C)S(=O)(=O)c2cccc(Cl)c2)cc1OC` (stereo not shown) [Example 51, 2-(3-Chlorophenylsulfonyl)-N′-(3,4-dimethoxybenzylidene)propanehydrazide], the figure is 1700 nM; as for `Cc1cn(CCC(=O)N/N=C/c2ccc3cccnc3c2)c2ccccc12` [Example 68, 3-(3-methyl-1H-indol-1-yl)-N′-(quinolin-7-ylmethylene)-propanehydrazide], > 30000 nM; as for `COc1ccc(/C=N/NC(=O)CCn2cnc3c(C)cccc32)cc1OC` [Example 17, N′-(3,4-Dimethoxybenzylidene)-3-(4-methyl-1H-benzo[d]imidazol-1-yl)propanehydrazide], 2400 nM. For the compound `O=C(N/N=C/c1cc(Cl)c2ncccc2c1)[C@@H]1C[C@H]1c1cccc(Cl)c1` (relative stereo) [Example 28, trans-2-(3-Chlorophenyl)-N′-((8-chloroquinolin-6-yl)methylene)cyclopropanecarbohydrazide], the IC50 amounted to 650 nM.

Turning to `COc1ccc(/C=N/NC(=O)CCn2cc(C)c3cccnc32)cc1OC` [Example 14, N′-(3,4-Dimethoxybenzylidene)-3-(3-methyl-1H-pyrrolo[2,3-b]pyridin-1-yl)propanehydrazide], the IC50 was 680 nM. In the case of `Cc1cc(/C=N/NC(=O)C2CC2c2ccc(Cl)cn2)cc2cccnc12` (stereo not drawn) [Example 43, trans-2-(5-Chloropyridin-2-yl)-N′-((8-methylquinolin-6-yl)methylene)cyclopropanecarbohydrazide] it was 5400 nM; in that of `COc1cccc([C@@H]2C[C@H]2C(=O)N/N=C/c2cc(C)c3ncccc3c2)n1` (relative stereo) [Example 42, trans-2-(6-Methoxypyridin-2-yl)-N′-((8-methylquinolin-6-yl)methylene)cyclopropanecarbohydrazide], 410 nM. As for `COc1ccc(/C=N/NC(=O)[C@@H]2C[C@H]2c2cccc(C(F)(F)F)c2)cc1OC` (relative stereo) [Example 6, trans-N′-(3,4-Dimethoxybenzylidene)-2-(3-(trifluoromethyl)phenyl)cyclopropanecarbohydrazide], the figure is 37 nM; as for `Cc1cn(CCC(=O)N/N=C/c2ccc3c(c2)OCCCO3)c2ccccc12` [Example 58, N′-((3,4-dihydro-2H-benzo[b][1,4]di-oxepin-7-yl)methylene)-3-(3-methyl-1H-indol-1-yl)propanehydrazide], 180 nM. In the case of `COc1cc(F)c(/C=N/NC(=O)CCn2cc(C)c3c(C)cccc32)cc1OC` [Example 8, 3-(3,4-Dimethyl-1H-indol-1-yl)-N′-(2-fluoro-4,5-dimethoxybenzylidene)propanehydrazide] it was 3 nM.

With `COc1cc(C)c2cc(/C=N/NC(=O)CCn3cc(C)c4ccccc43)ccc2n1` [Example 52, N′-((2-Methoxy-4-methylquinolin-6-yl)methylene)-3-(3-methyl-1H-indol-1-yl)propanehydrazide], the IC50 turned out to be 2000 nM. As for `Cc1cc(/C=N/NC(=O)[C@@H]2C[C@H]2c2cccc(Cl)c2)cc2cccnc12` (relative stereo) [Example 29, trans-2-(3-Chlorophenyl)-N′-((8-methylquinolin-6-yl)methylene)cyclopropanecarbohydrazide], the figure is 800 nM; as for `COc1ccc(/C=N/NC(=O)NCCc2ccc(Cl)cc2)cc1OC` [Example 5, N-(4-Chlorophenethyl)-2-(3,4-dimethoxybenzylidene)hydrazinecarboxamide], 51 nM; as for `COc1cc(/C=N/NC(=O)CCn2cc(C)c3c(C)cccc32)cc2cccnc12` [Example 27, 3-(3,4-Dimethyl-1H-indol-1-yl)-N′-((8-methoxyquinolin-6-yl)methylene)propanehydrazide], 1.4 nM.

As to `COc1ccc(/C=N/NC(=O)CCn2cc(C)c3c(CO)cccc32)cc1OC` [Example 50, N′-(3,4-Dimethoxybenzylidene)-3-(4-(hydroxymethyl)-3-methyl-1H-indol-1-yl)propanehydrazide], the IC50 is 260 nM. As for `COc1cc(/C=N/NC(=O)C2CC2c2ccccc2)ccc1OCc1cccnc1` (stereo not drawn) [Example 20, trans-N′-(3-Methoxy-4-(pyridin-3-ylmethoxy)benzylidene)-2-phenylcyclopropanecarbohydrazide], the IC50 is 1600 nM. As for `COc1cc(/C=N/NC(=O)CCn2cc(C)c3c(C)cccc32)ccc1OCc1cnccn1` [Example 21, 3-(3,4-Dimethyl-1H-indol-1-yl)-N′-(3-methoxy-4-(pyrazin-2-ylmethoxy)benzylidene)propanehydrazide], the figure is 60 nM. Take `Cc1cn(CCC(=O)N/N=C/c2ccc3ncccc3n2)c2ccccc12` [Example 33, N′-((1,5-Naphthyridin-2-yl)methylene)-3-(3-methyl-1H-indol-1-yl)propanehydrazide]: the half-maximal inhibitory concentration (IC50) stood at 1300 nM. As for `Cc1cn(CCC(=O)N/N=C/c2ccc3ncccc3c2)c2ccccc12` [Example 59, 3-(3-methyl-1H-indol-1-yl)-N′-(quinolin-6-ylmethylene)-propanehydrazide], the IC50 was 340 nM.

For the compound `COc1ccc(/C=N/NC(=O)CCc2cnc3ccccc3c2)cc1OC` [Example 39, N′-(3,4-dimethoxybenzylidene)-3-(quinolin-3-yl)propanehydrazide], the IC50 came out at 810 nM.

As to `Cc1ccc2cc(/C=N/NC(=O)CCn3cc(C)c4ccccc43)ccc2n1` [Example 69, 3-(3-methyl-1H-indol-1-yl)-N′-((2-methylquinolin-6-yl)methylene)-propanehydrazide], the IC50 was > 30000 nM. Consider `COc1ccc(/C=N/NC(=O)CCn2cc(C)c3ccccc32)cc1OC` [Example 56, N′-(3,4-dimethoxybenzylidene)-3-(3-methyl-1H-indol-1-yl)propanehydrazide], for which the IC50 amounted to 17 nM. As for `Cc1cc(/C=N/NC(=O)CCc2cn(C)c3ccccc23)cc2cccnc12` [Example 23, 3-(1-Methyl-1H-indol-3-yl)-N′-((8-methylquinolin-6-yl)methylene)propanehydrazide], the figure is 160 nM; as for `COc1ccc(/C=N/NC(=O)C(C)Sc2cccc(Cl)c2)cc1OC` (stereo not shown) [Example 1, 2-(3-Chlorophenylthio)-N′-(3,4-dimethoxybenzylidene)propanehydrazide], 55 nM. In the case of `COc1ccc(/C=N/NC(=O)CCc2cn(C)c3c(C)cccc23)cc1OC` [Example 48, N′-(3,4-Dimethoxybenzylidene)-3-(1,7-dimethyl-1H-indol-3-yl)propanehydrazide], the IC50 was 9 nM. As for `COc1ccc(/C=N/NC(=O)CSc2cccc(Cl)c2)cc1OC` [Example 66, 2-(3-chlorophenylthio)-N′-(3,4-dimethoxybenzylidene)acetohydrazide], the figure is 40 nM.

Source of the values: patent publication US20110033393A1, “Hydrazone Compounds and Their Use” (priority 2009, published 2011).
